In US12628822B2, “Plant pathogen defence elicitors” (UNIVERSITÉ LIBRE DE BRUXELLES, priority 2020, dated 2026):

Key:
[1] = molecular target: beta-glucosidases enzyme from Aspergillus niger (Aspergillus niger, UniProt A2RAL4); details: 100 μM, 1 μM enzyme, 50 Celsius degree, pH 5.5; after instant (less then 5 minutes) incubation
Description: The volume of reaction was set at 500 μl and carried in 2 ml gas tight tubes, shacked constantly at 800 rpm, and the hydrolysis was sampled 100 μl after 5 minutes, 30 minutes and 60 minutes. The hydrolysates were analysed by HPAEC analytics according to Westereng et al. 2013 (vide supra).

[2] = system: Ethylene production; experiment: Ethylene emanation of Arabidopsis seedlings (ETD 300 detector); format: in vivo, Arabidopsis thaliana; details: 100 μM sprayed; 3 weeks in vitro seedlings
Description: Ethylene production was analysed in three independent experiments with the ETD 300 detector (Sensor-Sense, Nijmegen, the Netherlands) under a stop-and-flow routine where the gas from one vial accumulated in an interval of 10 min, and then flushed to the detector. Bars in FIG. 15 represent mean and standard deviation.

Sequence of beta-glucosidases enzyme from Aspergillus niger (A2RAL4 20-860): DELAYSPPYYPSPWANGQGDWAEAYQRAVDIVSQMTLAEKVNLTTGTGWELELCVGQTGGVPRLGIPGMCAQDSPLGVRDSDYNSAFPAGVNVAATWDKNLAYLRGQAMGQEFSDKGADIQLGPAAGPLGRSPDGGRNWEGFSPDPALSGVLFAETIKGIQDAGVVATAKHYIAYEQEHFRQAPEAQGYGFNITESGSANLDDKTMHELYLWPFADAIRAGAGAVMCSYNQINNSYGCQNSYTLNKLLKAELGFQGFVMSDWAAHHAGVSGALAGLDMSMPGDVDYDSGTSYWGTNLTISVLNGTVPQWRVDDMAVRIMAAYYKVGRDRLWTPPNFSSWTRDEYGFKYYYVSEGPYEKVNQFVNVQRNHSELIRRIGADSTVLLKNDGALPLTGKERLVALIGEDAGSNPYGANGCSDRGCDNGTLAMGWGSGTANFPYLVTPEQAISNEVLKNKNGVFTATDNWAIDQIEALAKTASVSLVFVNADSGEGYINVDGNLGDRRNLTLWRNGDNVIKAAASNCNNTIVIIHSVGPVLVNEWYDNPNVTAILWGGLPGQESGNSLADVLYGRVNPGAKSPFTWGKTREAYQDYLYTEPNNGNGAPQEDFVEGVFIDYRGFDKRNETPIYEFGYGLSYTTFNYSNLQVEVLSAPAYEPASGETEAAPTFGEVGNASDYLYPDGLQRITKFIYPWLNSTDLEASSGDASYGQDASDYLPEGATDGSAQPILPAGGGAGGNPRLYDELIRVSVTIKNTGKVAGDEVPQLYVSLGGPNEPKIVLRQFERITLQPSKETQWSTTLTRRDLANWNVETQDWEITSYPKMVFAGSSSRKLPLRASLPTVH

Structure (SMILES)	resistance to digestion by beta-glucosidases [1]	Ethylene production versus mock-treated seedlings [2]
O=C1C(CO)OC(OC2C(CO)OC(O)C(O)C2O)C(O)C1O (stereo not drawn) [4-keto-cellobiose]	able to resist the digestion	–
O=C(O)[C@H](O)[C@@H](O)[C@H](O[C@@H]1O[C@H](CO)[C@@H](O)[C@H](O)[C@H]1O)[C@H](O)CO [cellobionic acid, 4-O-β-D-glucopyranosyl-D-gluconic acid]	able to resist the digestion	higher
